Experimental findings from patent publication US20240124389A1, “COMPOUND OR SALT THEREOF, LIPID PARTICLES, AND PHARMACEUTICAL COMPOSITION” (FUJIFILM Corporation, priority 2021, published 2024) are described below.

A short description of data set [1]: Particle size of FLuc mRNA-encapsulating lipid particles. Type of data set: physicochemical. To be noted: lipid/nucleic acid 32 wt/wt. How it is done:
(§1) The compounds described in Table 2, the neutral lipid, cholesterol (product name: Cholesterol HP; NTPPON FINE CHEMICAL CO., LTD.), and 1,2-dimyristoyl-rac-glycero-3-(methylpolyoxyethylene 2000) (hereinafter, called DMG-PEG2000) were dissolved in ethanol at a molar ratio in Table 2 such that the total lipid concentration became 20 mmol/L, thereby obtaining an oil phase.
(§2) As the neutral lipid, 1,2-distearoyl-sn-glycero-3-phosphocholine (product name: COATSOME® MC-8080; NOF corporation) was used in a case of Comparative Example 1, and L-α-dioleoylphosphatidylethanolamine (product name: COATSOME® MC-8181; NOF corporation) was used in a case other than Comparative Example 1.
(§3) FLuc mRNA (product name: CleanCap FLuc mRNA (5 moU); TriLink) was diluted with 50 mmol/L citrate buffer having a pH 4 such that the weight ratio of total lipid concentration to mRNA concentration is about 19:1 to 64:1, obtaining a water phase. Then, the water phase and the oil phase were mixed together using NanoAssemblr (Precision NanoSystems) such that the volume ratio of water phase:oil phase was 3:1, and the mixed solution was 1.5-fold diluted with phosphate buffered saline (PBS), thereby obtaining a dispersion liquid of mRNA lipid particles. The dispersion liquid was dialyzed with a 10% aqueous sucrose solution using a dialysis cassette (Slide-A-Lyzer G2, MWCO: 10 kD, Thermo Fisher Scientific) to remove ethanol, thereby obtaining FLuc mRNA-encapsulating lipid particles.
(§4) The particle size of the mRNA-encapsulating lipid particles was measured by 10-fold diluting the dispersion liquid of lipid particle with phosphate buffered saline (PBS) using Zeta-potential & Particle size Analyzer ELS-Z2 (Otsuka Electronics Co., Ltd.).

Data set [2] deals with FLuc mRNA. Briefly: mRNA encapsulation rate of FLuc mRNA-encapsulating lipid particles. Type of data set: physicochemical. To be noted: aminolipid 45 / DOPE 10 / cholesterol 43.5 / DMG-PEG2000 1.5 mol %, lipid/nucleic acid 32 wt/wt. The protocol: as §1, §2, §3
(§5) 15 to 30 μL of a 3 mol/L aqueous sodium acetate solution and 4.5 to 9 μL of glycogen were added to 30 to 60 μL of the lipid particles retaining mRNA, and 0.75 to 1.5 mL of ethanol was added thereto, so that only the nucleic acids were precipitated while the lipid was dissolved. Then, the supernatant was removed by centrifugation. The precipitates were air-dried for 15 minutes or longer, then water was added thereto to redissolve the precipitates, and the concentration thereof was measured using Nanodrop NF1000 (Thermo Fisher Scientific), thereby quantifying the total mRNA concentration.
(§6) The mRNA concentration was quantified using a Quant-iT RiboGreen RNA Assay Kit (Thermo Fisher Scientific) according to the protocol. First, a 20×TE buffer included in the above-described kit was diluted with water, thereby obtaining a 1×TE buffer. TE represents Tris/EDTA (ethylenediaminetetraacetic acid). In order to quantify only mRNA in the outer water phase, the dispersion liquid of lipid particles retaining mRNA was 10,000-fold diluted with the 1×TE buffer. 100 μL of the 10,000-fold diluted dispersion liquid of lipid particles was put into a 96-well plate, then 100 μL of a RiboGreen reagent (reagent included in the Quanti-iT Ribogreen RNA Assay Kit described above) 2,000-fold diluted with the 1×TE buffer was added to a sample, and fluorescence (excitation wavelength: 485 nm, fluorescence wavelength: 535 nm) was measured using a plate reader Infinite F200 (TECAN), thereby quantifying the mRNA concentration in the outer water phase.
(§7) By using the quantification results of the total mRNA concentration and the mRNA concentration in the outer water phase that were obtained through the above steps, the mRNA encapsulation rate of the mRNA lipid particles was calculated according to the following Equation.
(§8) mRNA encapsulation rate (%)=(total mRNA concentration-mRNA concentration in outer water phase)/total mRNA concentration×100

Data set [3] deals with FLuc mRNA. Described as above. Type of data set: physicochemical. To be noted: lipid/nucleic acid 32 wt/wt.
The subject of the next data set is EPO mRNA. Briefly: mRNA encapsulation rate of EPO mRNA-encapsulating lipid particles. Type of data set: physicochemical. How it is done:
(§9) The compounds described in Table 1, the neutral lipid, cholesterol (product name: Cholesterol HP; NIPPON FINE CHEMICAL CO., LTD.), and 1,2-dimyristoyl-rac-glycero-3-(methylpolyoxyethylene 2000) (hereinafter, called DMG-PEG2000) (product name: SUNBRIGHT® GM-020; NOF corporation) were dissolved in ethanol at a molar ratio in Table 1 such that the total lipid concentration became 20 mmol/L, thereby obtaining an oil phase.
(§10) As the neutral lipid, 1,2-distearoyl-sn-glycero-3-phosphocholine (product name: COATSOME® MC-8080; NOF corporation) (hereinafter, DSPC), or L-α-dioleoyl phosphatidylethanolamine (Hereinafter, DOPE) (product name: COATSOME® ME-8181; NOF corporation), or 1,2-dioleoyl-sn-glycero-3-phosphocholine (hereinafter, DOPC) (product name: COATSOME® MC-8181; NOF corporation) was used.
as §3, with “EPO” for “FLuc”, “(5moU);” for “(5 moU);”, “16:1” for “19:1”, “64:1, thereby” for “64:1,”
as §5, §6, §7, §8

The next data set has as its system human EPO. Briefly: Measurement of EPO enzyme activity (EPO protein in blood plasma of mice after intravenous administration of EPO mRNA lipid particles). Conditions: C57BL/6J mice, tail-vein i.v., mRNA 0.1 mg/kg, plasma 20 to 24 hours. The class given is in vivo. How it is done:
as §9, §10
as §3, with “EPO” for “FLuc”, “(5moU);” for “(5 moU);”, “16:1” for “19:1”, “64:1, thereby” for “64:1,”
The dispersion liquid of mRNA lipid particles prepared in above-described <Preparation of EPO mRNA-encapsulating lipid particles> was tail-vein intravenously administered to C57BL/6J mice at a mRNA dosage of 0.1 mg/kg. 20 to 24 hours after the administration, blood was collected from the caudal vena cava, thereby obtaining blood plasma. The human EPO enzyme activity was quantified by using the obtained blood plasma and ab119522 Erythropoietin (EPO) Human Elisa Kit (Abcam.plc). The quantitative value is described as a relative amount of EPO protein in a case where Comparative Example 1 is 1.

Data set [4] in a line: Particle size of EPO mRNA-encapsulating lipid particles. Type of data set: physicochemical. The protocol: as §9, §10
as §3, with “EPO” for “FLuc”, “(5moU);” for “(5 moU);”, “16:1” for “19:1”, “64:1, thereby” for “64:1,”
as §4

The nature of data set [5]: Particle size of FLuc mRNA-encapsulating lipid particles. Type of data set: physicochemical. Conditions: aminolipid 45 / DOPC 10 / cholesterol 43.5 / DMG-PEG2000 1.5 mol %, lipid/nucleic acid 32 wt/wt.
[6] abbreviates: aminolipid 45 / DOPE 10 / cholesterol 43.5 / DMG-PEG2000 1.5 mol %.
[7] abbreviates: aminolipid 45 / neutral lipid — (composition printed 10) / cholesterol 53.5 / DMG-PEG2000 1.5 mol %.
Setting [8] is: aminolipid 45 / DOPC 10 / cholesterol 43.5 / DMG-PEG2000 1.5 mol %, lipid/nucleic acid 32 wt/wt.
The mark [9] stands for this setting: aminolipid 45 / DOPE 10 / cholesterol 43.5 / DMG-PEG2000 1.5 mol %, lipid/nucleic acid 32 wt/wt.
[10] abbreviates: aminolipid 45 / no neutral lipid / cholesterol 53.5 / DMG-PEG2000 1.5 mol %, lipid/nucleic acid 32 wt/wt.
[11] abbreviates: aminolipid 45 / DOPE 10 / cholesterol 43.5 / DMG-PEG2000 1.5 mol %, lipid/nucleic acid 64 wt/wt.

In the case of `CCCCCC(CCCCC)COC(=O)CCCC(CCC)OC(=O)OCCN(CCCN(CC)CC)CCOC(=O)OC(CCC)CCCC(=O)OCC(CCCCC)CCCCC` (stereo not shown) [Example 28, Bis(2-pentylheptyl) 11-(3-(diethylamino)propyl)-7,15-dioxo-5,17-dipropyl-6,8,14,16-tetraoxa-11-azahenicosanedi oate], the Particle size in data set [1] (setting [6]) worked out at 82.9 nm; in data set [1] (setting [7]), 164.6 nm; in data set [4] (setting [8]) it was 82.1 nm; in data set [4] (setting [9]), 115.7 nm; in data set [4] (setting [10]), 155.2 nm; in data set [5] it was 104.3 nm. For the same compound, the “Nucleic acid encapsulation rate” value in the data set with FLuc mRNA [2] is 100.0%; in the data set with FLuc mRNA [3] (aminolipid 45 / DOPC 10 / cholesterol 43.5 / DMG-PEG2000 1.5 mol %) it was 99.1%; in the data set on FLuc mRNA [3] (setting [7]) it was 99.1%; in the data set on EPO mRNA (setting [8]), 99.2%; in the data set on EPO mRNA (setting [9]) it was 98.8%; in the data set with EPO mRNA (setting [10]), 99.2%. The “Relative amount of EPO protein (with respect to Comparative Example 1)” value (shortened to “Relative amount of EPO protein”) was determined as 3.54 in the data set with human EPO (setting [8]), 1.23 with human EPO (setting [9]) and 1.47 in the data set on human EPO (setting [10]).
For `CCCCCCSCCOC(=O)CCCC(CCCC(=O)OCCSCCCCCC)OC(=O)OCCN(CCOC(=O)OC(CCCC(=O)OCCSCCCCCC)CCCC(=O)OCCSCCCCCC)CCN(CC)CC` [Example 43, Bis(2-(hexylthio)ethyl) 11-(2-(diethylamino)ethyl)-5,17-bis(4-(2-(hexylthio)ethoxy)-4-oxobutyl)-7,15-dioxo-6,8,14,16-tetraoxa-11-azahenicosanedioate], the values for the Particle size in data set [1] (setting [6]) and in data set [4] (setting [11]) were 144 nm and 155.0 nm, respectively. Also, the “Nucleic acid encapsulation rate” value in the data set with FLuc mRNA [2] came out at 100.0%; in the data set on EPO mRNA (setting [11]), 95.7%. For the same compound, in the data set on human EPO (setting [11]), the “Relative amount of EPO protein” value is reported as 3.12.
For `CCN(CC)CCN(CCOC(=O)OC(CCCC(=O)OCCCCCCCCSC)CCCC(=O)OCCCCCCCCSC)CCOC(=O)OC(CCCC(=O)OCCCCCCCCSC)CCCC(=O)OCCCCCCCCSC` [Example 44, Bis(8-(methylthio)octyl) 11-(2-(diethylamino)ethyl)-5,17-bis(4-((8-(methylthio)octyl)oxy)-4-oxobutyl)-7,15-dioxo-6,8,14,16-tetraoxa-11-azahenicosanedioate], the Particle size in data set [1] (setting [6]) worked out at 170.5 nm; in data set [4] (setting [11]) it was 201.9 nm. In addition, the “Nucleic acid encapsulation rate” value in the data set on FLuc mRNA [2] was determined as 100.0%; in the data set with EPO mRNA (setting [11]), 81.2%. Moreover, the “Relative amount of EPO protein” value in the data set with human EPO (setting [11]) was 1.39.
